Test results from patent US20090105206A1, “Copper Melphalan And Copper Tegafur As Anti-Tumor Agents” (priority 2004, published 2009).

How the values were obtained:
[1] = test system: murine renal cell carcinoma (RENCA) tumor cells applied orthotopically; experiment: Example 3: murine renal cell carcinoma model (RENCA), substance Day 10-18; assay type: in vivo, Balb/c mouse; settings: 5 and 7.5 mg/kg per day i.p., Day 10-18, findings Day 19
Experimental: Using a murine renal cell carcinoma model (RENCA) of the Balb/c mouse a test of the effectiveness of mel-Cu-mel was carried out on the primary tumor, the metastases and the vessel density. For this the tumor cells were applied orthotopically into the left-hand peri-renal capsule of syngenic mice, the administered dose per day of treatment being: 5 mg/kg mouse and 7.5 mg/kg mouse, 5 animals per dose plus 5 animals for solvent control. The anti-tumor agent according to the invention Cu(mel)2 was applied intraperitonial. The treatment model was as follows:
As a control 5 animals were used to which no active ingredient was administered and for comparison a group of 5 animals were administered melphalan alone.

N[C@@H](Cc1ccc(N(CCCl)CCCl)cc1)C(=O)[O-].N[C@@H](Cc1ccc(N(CCCl)CCCl)cc1)C(=O)[O-].O.O.[Cu+2] [Cu(melphalan)2]
kidney weight and kidney volume compared with the control (FIG. 5) [1]: significantly lower kidney weight and kidney volume
lung weight compared with the control and with melphalan alone (FIG. 6) [1]: reduced
chemical stability (blue solid): chemically stable
effectiveness compared with melphalan (investigations of kidney cell carcinoma and lung metastases formation): much more effective than melphalan
